What was measured:
Type in all cases: cell-based
ER-β = target: T1, ER-β (Homo sapiens, UniProt Q92731); assay: Evaluation of SERMs activity: ERβ/pERE-TA-SEAP reporter gene assay in transfected CV-1 cells; conditions: for ER Subtype Activity ER-β: ratio to untreated cells (Medium only); for ER-β/ER-α: ratio of relative ER-β to ER-α activity
T1 construct: expressed in transfected cells; host or cells: CV-1 (Cercopithecus aethiops kidney cells)
Method: (§1) CV-1 cells (Cercopithecus aethiops kidney cells) were grown at a confluence of 70-80% and were harvested in a cell suspension at a concentration of 5×10^4 cell/ml. The cell suspensions were added to each well (100 μl/well) of 96-well plate and the 96-well plate was incubated at 37° C., 5% CO2 incubator overnight.
(§2) 500 μl jetPRIME® buffer. 5 μg pERE-TA-SEAP and 5 μg ERα DNA plasmid (or ERβ DNA plasmid) were mixed in 1.5 ml eppendorf, then 20 μl jetPRIME® Transfection Reagent and 1.5 ml medium were added. The DNA mixtures were added to each well of 96-well plate (20 μl) and the 96-well plate was incubated at 37° C., 5% CO2 incubator for 4 hours.
(§3) The supernatant solutions were removed from each well of 96-well plate, then 90 μl charcoal-treated. FBS medium without phenol red were added to each well of 96-well plate. The samples to be tested were added to the wells of 96-well plate, which was incubated in 37° C., 5% CO2 incubator for 48 to 72 hours. The cells were harvested for the subsequent reporter gene assay and cell toxicity assay.
25 μl cell culture supernatants were collected from the 96-well plate and, then added to a new luminescence microplate, which was incubated at 65° C. water bath for 30 minutes to remove the activity endogenous alkaline phosphatase, and was placed on ice for 5 minutes and was centrifuged (1,000 rpm) for one minute. 25 μl PhosphaLight™ assay buffers were added at room temperature for 5 minutes and 25 μl CSPD (Disodium 3-(4-methoxyspiro {1,2-dioxetane-3,2′-(5′-chloro)tricyclo [3.3 1.13,7]decan}-4-yl phenyl phosphate)-containing Phospha-Light™ reaction buffers were added at room temperature for 20 minutes. The luminescence microplate was placed in Victor™ Light 1420 Luminescence Counter and the SEAP enzyme activities were measured.

ER-α = target: T2, ER-α (Homo sapiens, UniProt P03372); assay: Evaluation of SERMs activity: ERα/pERE-TA-SEAP reporter gene assay in transfected CV-1 cells; conditions: 25 μg/mL, ratio to untreated cells (Medium only)
T2 construct: expressed in transfected cells; host or cells: CV-1 (Cercopithecus aethiops kidney cells)
T2 sequence (P03372 1-595): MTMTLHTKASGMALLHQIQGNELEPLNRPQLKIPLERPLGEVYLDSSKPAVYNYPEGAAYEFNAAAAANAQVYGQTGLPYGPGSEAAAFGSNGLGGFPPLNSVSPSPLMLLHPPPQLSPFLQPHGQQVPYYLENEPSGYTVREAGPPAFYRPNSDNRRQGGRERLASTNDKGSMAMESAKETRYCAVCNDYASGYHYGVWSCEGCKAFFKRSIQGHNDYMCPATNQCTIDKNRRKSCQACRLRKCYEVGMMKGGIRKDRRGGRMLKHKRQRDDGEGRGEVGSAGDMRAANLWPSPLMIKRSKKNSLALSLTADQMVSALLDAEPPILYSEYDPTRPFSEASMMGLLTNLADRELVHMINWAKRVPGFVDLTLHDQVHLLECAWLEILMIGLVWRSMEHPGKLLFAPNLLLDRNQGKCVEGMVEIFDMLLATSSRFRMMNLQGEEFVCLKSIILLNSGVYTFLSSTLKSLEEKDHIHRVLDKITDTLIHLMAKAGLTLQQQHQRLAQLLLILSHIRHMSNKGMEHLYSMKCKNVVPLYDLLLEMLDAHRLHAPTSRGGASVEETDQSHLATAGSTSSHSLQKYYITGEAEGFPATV
Method: as §1, §2, §3
(§4) 25 μl cell culture supernatants were collected from the 96-well plate and, then added to a new luminescence microplate, which was incubated at 65° C. water bath for 30 minutes to remove the activity endogenous alkaline phosphatase, and was placed on ice for 5 minutes and was centrifuged (1,000 rpm) for one minute.

Estrogen Receptor (ER) = target: T3, Estrogen Receptor (ER) (Homo sapiens, UniProt P03372); assay: ER total activity assay (pERE-TA-SEAP reporter in MCF-7 cells); conditions: for ER activity (FIG. 1, in words): 2 μg/ml, 5 μg/ml and 10 μg/ml; for ER activity compared with 17-β Estradiol (positive control), FIG. 1, in words: MCF-7 cells
T3 construct: endogenous in cells; host or cells: MCF-7
T3 sequence (P03372 1-595): T2 sequence (P03372 1-595)
Method: ER is a ligand-activated enhancer protein that is a member of the steroid/nuclear receptor superfamily. […] Secreted alkaline phosphatase (SEAP) is a reporter widely used to study promoter activity or gene expression.
The 1 ml 0.05% trypsin-EDTA solution was added to 80% confluence (on Day 5, if cells were in log phase) of MCF-7 cells in a T75 flask at 37° C. for 5 minutes. After the cells were detached, 5 ml charcoal-treated FBS-containing medium were added to suspend the cells. The charcoal-treated FBS-containing PBS medium were added 2 ml cell suspensions to the final volume of 10 ml of a mixture. The mixture was dispensed into each well (100 μl/well, 2×10^4 cells/well) of a 96-well plate by 8-channel pipette, and the 96-well plate was placed at 37° C. and 5% CO2 overnight to obtain about 70% confluence.
To transfect cells to express the ERE, a transfection mixture was prepared. TransIT®-LT1 Transfection Reagent is a broad spectrum reagent that provides high efficiency plasmid DNA delivery in many mammalian cell types including primary cells. Specifically, 1 ml Opti-MEM®, 14 μl TransIT®-LT1 Transfection Reagent and 5 μg pERE-TA-SEAP were added into a 1.5 ml Eppendorf and let the transfection mixture stand for 15-30 minutes.
Transfection mixture containing TransIT-DNA was dispensed into each well (10 μl/well) of a 96-well plate, and the 96-well plate was placed at 37° C. and 5% CO2 for 24 hours. The supernatants were removed from the 96-well plate using 8-channel pipette.
as §4

T1 sequence (Q92731 whole entry, species assumed): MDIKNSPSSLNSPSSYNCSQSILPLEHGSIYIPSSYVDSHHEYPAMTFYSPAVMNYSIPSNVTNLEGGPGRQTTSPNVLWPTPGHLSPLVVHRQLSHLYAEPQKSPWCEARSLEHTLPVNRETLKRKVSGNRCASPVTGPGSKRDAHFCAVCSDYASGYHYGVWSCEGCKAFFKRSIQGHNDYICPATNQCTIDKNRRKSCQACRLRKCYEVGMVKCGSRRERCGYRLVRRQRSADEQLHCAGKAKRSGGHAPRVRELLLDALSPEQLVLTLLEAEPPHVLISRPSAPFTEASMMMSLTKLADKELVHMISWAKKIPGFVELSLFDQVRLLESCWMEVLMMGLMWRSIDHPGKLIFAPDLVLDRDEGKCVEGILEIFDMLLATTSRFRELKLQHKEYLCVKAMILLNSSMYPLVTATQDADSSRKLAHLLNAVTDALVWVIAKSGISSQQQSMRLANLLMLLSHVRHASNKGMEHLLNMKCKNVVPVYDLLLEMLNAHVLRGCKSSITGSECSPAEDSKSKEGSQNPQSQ

Structure (SMILES): C[C@]12CC[C@@H]3c4ccc(O)cc4CC[C@H]3[C@@H]1CC[C@@H]2O [17-β Estradiol (E2), 17-β Estradiol, reference compound]
- ER Subtype Activity ER-β (ER-β; 200 nM): 3.70 ± 0.45

Structure (SMILES): C=C1CCCC(C)(C)C1CC/C(C)=C/C(=O)O (stereo not shown) [Compound 1, (E)-5-(2,2-dimethyl-6-methylenecyclohexyl)-3-methylpent-2-enoic acid]
- ER Subtype Activity ER-α (ER-α): 1.21 ± 0.53
- ER-β versus ER-α activity (in words) (ER-β): superior ER-β activity over ER-α activity
- ER-β/ER-α (ER-β; 25 μg/mL): 3.1
- ER Subtype Activity ER-β (ER-β; 25 μg/mL): 3.80 ± 0.11
- ER activity (FIG. 1, in words) (Estrogen Receptor (ER)): significant ER activity
- ER activity compared with 17-β Estradiol (positive control), FIG. 1, in words (Estrogen Receptor (ER)): superior ER activity over 17-β Estradiol

Structure (SMILES): C=C1CCCC(C)(C)[C@@H]1/C=C/C(C)=C/C(=O)O [Compound 2, (+)-(2E,-4E)-5-((S)-2,2-dimethyl-6-methylenecyclohexyl)-3-methylpenta-2,4-dienoic acid]
- ER Subtype Activity ER-α (ER-α): 1.16 ± 0.16
- ER-β versus ER-α activity (in words) (ER-β): superior ER-β activity over ER-α activity
- ER-β/ER-α (ER-β; 25 μg/mL): 2.2
- ER Subtype Activity ER-β (ER-β; 25 μg/mL): 2.53 ± 0.77
- ER activity (FIG. 1, in words) (Estrogen Receptor (ER)): significant ER activity
- ER activity compared with 17-β Estradiol (positive control), FIG. 1, in words (Estrogen Receptor (ER)): superior ER activity over 17-β Estradiol

Reference: patent publication US20200147158A1, “SANGHUANGPORUS SANGHUANG STRAINS AND THEIR PRODUCTS, EXTRACTS AND APPLICATIONS” (FOOD INDUSTRY RESEARCH AND DEVELOPMENT INSTITUTE, priority 2018, published 2020)
